From patent US9163018B2, “Method of treatment of age-related macular degeneration (AMD)” (Prana Biotechnology Limited, priority 2006, dated 2015)

How the values were obtained:
[1] = target: T1, Abeta:Zn (25:50 μM) Synthetic Aggregations (Homo sapiens, UniProt P05067); experiment: Disaggregation of Abeta:Zn synthetic aggregates (ThT fluorescence); type: biochemical; conditions: for Disaggregation % Aggregate reduction at 5 μM: 5 μM test compound; for EC50: Abeta:Zn 25:50 μM aggregates
T1 construct: PB Compound Mediated Dissolution of Aggregated Abeta 1-42; purchased Keck Laboratory, Yale University School of Medicine
T1 sequence (P05067 672-713 limits assumed): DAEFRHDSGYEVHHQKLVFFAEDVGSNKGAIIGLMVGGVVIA
Experimental: PB Compound Mediated Dissolution of Aggregated Abeta 1-42
Abeta1-42, is available from the Keck Laboratory, Yale University School of Medicine. PBS (pH 6.6): Sigma Cat# D-8662. Zn(ZnCl2): BDH Cat#100884E. (Dissolved in water in 1 mM concentration) DMSO: Ajax Cat#2225. Thioflavin T: Sigma Cat# T-3516. (Dissolved in water in 1 mM concentration)
By way of example of an amyloid composition, Abeta is dissolved in distilled water and peptide concentration is assessed by measured absorption at 214 nm in UV spectrometer. An aggregation reactive mixture (per one concentration of one testing compound) is set us as follows: Abeta: 25 μM, ZnCl2 50 μM, ThT 50 μM, PBS to make up to 500 μl. The tube is wrapped with foil and incubated at 37 degrees by rotation for 24 hours. A serial dilution of each test compound is made up in DMSO, for example: 100 μM, 500 μM, 1000 μM, 2500 μM and 5000 μM. The final concentrations are 1, 5, 10, 25 and 50 μM, 5 μl of each of these compounds is placed in a centrifuge tube and 5 μl of DMSO is added to both negative and positive control tubes. 495 μl of aggregates (after 24 hours incubation) is added to the centrifuge tube. The negative control is PBS plus ZnCl2 and ThT and DMSO. The positive control is aggregates plus DMSO. The tubes are incubated at 37 degrees for further 2 hours with rotation. Samples are measured for ThT fluorescence using an LS55 (Perkin Elmer) fluorimeter in a cuvette (500 μl volume). The excitation wavelength is 450 nm and the emission wavelength is 480 nm. Data are analyzed using graph pad prism program. The tested compounds included so called “PB” compounds.

[2] = target: T2, Aβ 1-42 (Homo sapiens, UniProt P05067); experiment: Fluorometric H2O2 assay (inhibition of Abeta H2O2 production); type: biochemical; conditions: concentration required to inhibit 50% of Abeta H2O2 production; read-out: H2O2 IC50
T2 construct: The reaction solutions contained Aβ 1-42 at concentrations
T2 sequence (P05067 672-713 limits assumed): as above
Experimental: Assay 1. Fluorometric H2O2 Assay
A fluorometric assay was used to test the ability of a test compound to inhibit hydrogen peroxide generation by Aβ in the presence of copper based on dichlorofluoroscein diacetate (DCF; Molecular Probes, Eugene Oreg.). The DCF solution (5 mM) in 100% dimethyl sulphoxide (previously purged with argon for 2 hr at 20° C.) was deacetylated in the presence of 0.25M NaOH for 30 min and neutralized at pH 7.4 to a final concentration of 1 mM. Horseradish peroxidase (HRP) stock solution was prepared to 1 μM at pH 7.4. The reactions were carried out in PBS, pH 7.4 in a 96 well plate (total volume=250 μl/well). […] The reaction mixture was incubated at 37 C for 60 min. […] H2O2 concentration may be established by comparing fluorescence with the H2O2 standards, Inhibition of Aβ H2O2 production was assayed by including a given concentration of test compound(s) in the test wells.

[3] = system: primary cortical neuronal cultured cells; experiment: Test compound cytotoxicity, MTS assay, primary cortical neuronal cultures; type: cell-based, mouse; conditions: for Cytotox (% viable) Neuronal cells at 1 μM: 1 μM test compound; for Cytotox (% viable) Neuronal cells at 10 μM: 10 μM test compound
Experimental: Assay 2. Neurotoxicity Assays
Primary Cortical Neuronal Cultures
Media was then replaced with Neurobasal media (Invitrogen Life Technologies) and B27 supplements (Invitrogen Life Technologies). Cultures were maintained at 37° C. in 5% CO2. Prior to experimentation, the culture medium was replaced with Neurobasal media and B27 minus antioxidants (Invitrogen Life Technologies).
(§1) Assay 3. MTS Assay for Cell Viability
(§2) Cell viability is determined using the MTS assay. Culture medium is replaced with fresh neurobasal medium plus B27 supplements minus antioxidants. 1/10th volume MTS solution (Cell Titre 96 Aqueous One, Promega Corporation) and incubated at 37° C., 2 hrs. 200 microliter aliquots are measured with a spectrophotometer at 560 nm.
Assay 4. Assay for Test Compound Cytoxicity
Neuronal cortical cells were cultured for five days as per Assay 2 in NB media and B27 supplement.
On day six the test compounds were added to the neuronal cell cultures in NB media and B27 supplement minus antioxidants.
Test compounds were dissolved in 100% DMSO to a concentration of 2.5 mM (10 mM if excess compound was weighed out per vial—then diluted to 2.5 mM).
Test compounds were not added directly to cells, instead they were added to a 48 well ‘Drug Plate’ as comprised below:
The Drug Plate was incubated at 37° C. for 15 mins. 200 μl of each well was added in triplicate to the corresponding cell plate. The cell plate was incubated at 37 C, for 4 days.
On completion of the assay, 1/10 volume MTS was added per well of plate (ie 25 μl/250 μl). The plates were incubated at 37 C for 2 hrs, and then absorbance was read at 560 nm.

[4] = system: M17 human neuroblastoma cells; experiment: Cytotoxicity, M17 human neuroblastoma cells; type: cell-based; conditions: for Cytotox (% viable) M17 cells at 1 μM: 1 μM test compound; for Cytotox (% viable) M17 cells at 10 μM: 10 μM test compound
Experimental: as §1, §2

SMILES | Disaggregation % Aggregate reduction at 5 μM [1] [%] | EC50 [1] [nM] | IC50 [2] [nM] | Cytotox (% viable) Neuronal cells at 1 μM [3] [%] | Cytotox (% viable) Neuronal cells at 10 μM [3] [%] | Cytotox (% viable) M17 cells at 1 μM [4] [%] | Cytotox (% viable) M17 cells at 10 μM [4] [%]
CCOC(=O)c1cnc2c(O)c(CC)ncc2c1 [PB 1116] | 16.8 | > 20000 | 1630 | 103 | 92 | – | –
Oc1c(I)cc(I)c2cccnc12 [PB 46] | 58.7 | 4100 | 400 | 91 | 95 | – | –
CNCc1ccc2c(Cl)cc(Cl)c(O)c2n1.Cl [PB 1104] | 19.1 | > 20000 | 350 | 86 | 78 | – | –
O=c1c2cccc(O)c2ncn1CC1CC1 [PB 1118] | 58 | < 400 | 1440 | – | – | 106.8 | 88.6
CCN(CC)CCNC(=O)c1cnc2c(O)cccn2c1=O [PB 1199] | 20.4 | > 20000 | 1640 | – | – | 115.2 | 102.7
CCCNC(=O)Cn1cnc2c(O)c(I)ccc2c1=O [PB 1166] | 21.7 | > 20000 | 430 | – | – | 105 | 115.8
CCc1cnc2c(O)cccn2c1=O [PB 1124] | 8.4 | > 20000 | 400 | – | – | 96.1 | 27.1
CCN(CC)Cc1ccc2c(Cl)cc(Cl)c(O)c2n1.Cl [PB 1106] | 17.9 | 14200 | 400 | 74 | 70 | – | –
O=C1c2ccccc2C(=O)N1CCn1cnc2c(O)c(I)ccc2c1=O [PB 1170] | 53 | 4280 | 720 | – | – | 127.4 | 104.8
O=c1c2cccc(O)c2ncn1-c1ccc(F)cc1 [PB 1156] | 22 | > 20000 | 960 | – | – | 92.7 | 67.5
O=c1c2c(Cl)cc(I)c(O)c2ncn1Cc1ccccn1 [PB 1141] | 26 | 19500 | 480 | – | – | 102.8 | 137
CCCCCn1cnc2c(O)c(I)ccc2c1=O [PB 1176] | 45 | 6900 | 300 | – | – | 86.3 | 38.5
Br.Oc1cccc2c(=S)n(Cc3ccccn3)cnc12 [PB 1113] | 25.5 | > 20000 | 3200 | 97 | 90 | – | –
CCCCNC(=O)c1cnc2c(O)cccn2c1=O [PB 1159] | 49.9 | 5060 | 680 | – | – | 115 | 41.1
Nc1ccccc1NC(=O)c1cc(O)c2cccc(O)c2n1 [PB 986] | 28 | 18400 | 3600 | 98 | 82 | – | –
O=C1c2ccccc2C(=O)N1CCn1cnc2c(O)cccc2c1=O [PB 1185] | 35 | 9500 | 600 | – | – | 103.9 | 106.5
CCN(CC)C(=O)Cn1cnc2c(O)c(I)ccc2c1=O [PB 1167] | 39.3 | 7400 | 390 | – | – | 92.2 | 98.7
CCc1cnc2c(O)cccn2c1=S [PB 1143] | 62 | 4100 | 480 | – | – | 93.3 | 73.7
O=c1c2c(Cl)ccc(O)c2ncn1CC1CC1 [PB 1132] | 16 | 15200 | 470 | – | – | 86.3 | 57.6
O=c1c2cccc(O)c2ncn1Cc1ccccn1 [PB 1117] | 57.3 | < 400 | 720 | – | – | 109.2 | 96
O=C(NCc1ccc(F)cc1)c1cnc2c(O)cccn2c1=O [PB 1154] | 31 | > 20000 | 640 | – | – | 76.7 | 54.2
O=C(Cn1cnc2c(O)cccc2c1=O)Nc1ccccn1 [PB 1182] | 24 | > 20000 | 590 | – | – | 110.1 | 98.2
